{
  "source": "paper PMC12096834",
  "about": "“Antimicrobial peptide plectasin recombinantly produced in Escherichia coli disintegrates cell walls of gram-positive bacteria, as proven by transmission electron and atomic force microscopy” (Journal of Bacteriology, 2025)",
  "key": {"[1]": {"format": "physicochemical", "protocol": "IMAC elution buffer was exchanged five times against PBS (137 mM NaCl, […], 2.7 mM KCl, and pH 7.4) with nominal 3 kDa cut-off in Amicon Ultra spin vials (Merck, Darmstadt, Germany). The buffer was exchanged discontinuously until the imidazole concentration was below 10 mM. To prevent loss in the form of precipitated plectasin, the CASPON-plectasin was diluted with PBS to a final concentration of 3.2 mg/mL.\nThe buffer exchanged solution was treated by digesting CASPON-plectasin, using a 1:100 (mol/mol) dilution of the CASPON enzyme per peptide at 37°C for 12 hours. To prevent caspase oxidation and to facilitate the cleavage process, dithiothreitol (DTT) was added to a final concentration of 1 mM DTT. The temperature was maintained by using an Eppendorf Thermoblock (Hamburg, Germany). The CASPON enzyme is a modification of T7AC-6H cpCasp2, which is described by Cserjan-Puschmann et al. ([28]).\nThe same RP-HPLC method described by Müller et al. ([24]) was employed for CASPON-plectasin/plectasin quantification. For CASPON-plectasin and plectasin, the concentrations 1, 0.5, 0.25, 0.125, and 0.0625 g/L were utilized to construct the calibration curve.\n1.6 CASPON®-plectasin cleavage conditions […]\nplectasin is limited to […].\nFigure S5 Cleavage experiment using CASPON®-plectasin to examine the potential cleavage of plectasin. The calculated possible plectasin was based on the used CASPON®-plectasin mass (4 g/L), assuming no losses and employing stoichiometric principles.\nThe temperature and CASPONT® enzyme ratio (C. R.) were varied for the cleavage process. […]\nthe highest achievable plectasin concentration was 1.6 g/L. This outcome is consistent with the findings of a previous study (Mygind et al. 2005), which postulated that the solubility maximum of plectasin is approximately 1.6 g/L. However, an increase in DTT beyond this concentration […]\n(1 picture or pasted object on this page, not shown here)"}, "[2]": {"conditions": "published findings; 59 (Mygind et al. 2005); cited from earlier work"}},
  "note": "Like-named read-outs stand apart in the source and are kept apart here.",
  "data": [
    {"smiles": "CC[C@H](C)[C@@H]1NC(=O)[C@H](CO)NC(=O)[C@H](CCCCN)NC(=O)[C@@H]2CSSC[C@@H](C(=O)N[C@@H](Cc3ccc(O)cc3)C(=O)O)NC(=O)[C@H](CCCCN)NC(=O)[C@@H]3CSSC[C@H](NC(=O)[C@H](CCC(N)=O)NC(=O)[C@H](CCSC)NC(=O)[C@H](CC(=O)O)NC(=O)[C@H](CC(=O)O)NC(=O)[C@H](CCC(=O)O)NC(=O)[C@H](CC(=O)O)NC(=O)[C@H](Cc4c[nH]c5ccccc45)NC(=O)[C@@H]4CCCN4C(=O)CNC(=O)[C@H](CC(N)=O)NC(=O)[C@@H](NC(=O)CNC(=O)[C@H](Cc4ccccc4)NC(=O)CN)CSSC[C@H](NC(=O)[C@H](Cc4ccc(O)cc4)NC(=O)CNC(=O)CNC(=O)[C@H](CCCCN)NC(=O)[C@H](Cc4ccc(O)cc4)NC(=O)CNC(=O)[C@H](CCCCN)NC1=O)C(=O)N[C@@H](C)C(=O)N[C@@H](CCCCN)C(=O)NCC(=O)NCC(=O)N[C@@H](Cc1ccccc1)C(=O)N[C@@H](C(C)C)C(=O)N3)C(=O)N[C@@H](Cc1c[nH]cn1)C(=O)N[C@@H](CC(N)=O)C(=O)N[C@@H](Cc1c[nH]cn1)C(=O)N2", "note": "[Plectasin, plectasin]", "values": [
      {"measurement": "highest achievable plectasin concentration after CASPON-tag cleavage", "setting": "[1]; any selected cleavage condition (temperature and CASPON enzyme ratio varied), without DTT, from 4 g/L CASPON-plectasin, preliminary experiments, Fig. S5", "result": 1.5, "unit": "g/L"},
      {"measurement": "solubility of plectasin", "setting": "[1]; in the CASPON enzyme-based tag removal step (PBS pH 7.4, 37°C)", "result": "~ 1.6 g/L"},
      {"measurement": "highest achievable plectasin concentration after CASPON-tag cleavage", "setting": "[1]; with 1 mM DTT as supporting agent, Fig. S6", "result": 1.6, "unit": "g/L"},
      {"measurement": "maximum solubility of plectasin", "setting": "[2]", "result": "~ 1.6 g/L"}
    ]}
  ]
}
